{
  "source": "paper PMC12750388",
  "about": "“Coumarin-1,2,3-Triazole Conjugates as Molecular Scaffolds for the Selective Induction of ROS-Driven Apoptosis in Cancer Cells in the Development of Pyruvate Kinase M2 Inhibitors” (ACS Omega, 2025)",
  "key": {"[1]": {"system": "Primary Gingival Fibroblast", "test": "MTT cell viability assay, normal cells", "type": "cell-based, human", "method": "The viability of SCC cell lines and primary human fibroblast cells was evaluated using the MTT assay to determine half maximal inhibitory concentration (IC50). Briefly, cells were grown in triplicate in 96-well plates (5 × 10^3 cells/well) until confluence. Then the medium was removed, fresh medium was added, and the cells were returned to the incubator in the presence of different compounds. DMSO at the same concentrations was used as a 100% cell viability control. After 48 h, cells were incubated with 5 mg/mL MTT reagent (3-(4,5-dimethyl-2-thiazolyl)-2,5-diphenyl-2-H-tetrazolium bromide) (Sigma-Aldrich Co., St. Louis, MO, USA) for 3.5 h. After that, formazan crystals were dissolved in MTT solvent solution (DMSO/methanol 1:1 v/v), and the absorbance at 560 nm was evaluated using an EPOCH microplate spectrophotometer (BioTek Instruments, Winooski, VT, USA) with the background absorbance at 670 nm subtracted. Each of the 12 compounds (7a–7l) was tested at six different concentrations, ranging from 6.25 to 200 μM in cancer and normal cell lines. Control (carboplatin) was tested at six different concentrations ranging from 25 μM to 800 μM in cancer cells and from 50 μM to 1600 μM in normal cells.\nHalf-maximal inhibitory concentration (IC50) values were obtained from the MTT assay of at least three independent replicates through nonlinear regression analysis using GraphPad Prism 5.0 software (Intuitive Software for Science, San Diego, CA, USA). Data were presented as means ± standard deviation (SD). A log dose–response curve (inhibitor vs response) using the least-squares method was used to determine the IC50 and SD from the data. The selectivity index (SI) was calculated as the ratio between the IC50 in normal cells and the IC50 in cancer cells, obtained by dividing the IC50 of normal cells by the IC50 of cancer cells."}, "PKM2": {"biological_target": "T1, PKM2 (Homo sapiens, UniProt P14618)", "T1 construct": "purchased Sigma-Aldrich Co., St. Louis, MO, USA", "T1 sequence (P14618 whole entry)": "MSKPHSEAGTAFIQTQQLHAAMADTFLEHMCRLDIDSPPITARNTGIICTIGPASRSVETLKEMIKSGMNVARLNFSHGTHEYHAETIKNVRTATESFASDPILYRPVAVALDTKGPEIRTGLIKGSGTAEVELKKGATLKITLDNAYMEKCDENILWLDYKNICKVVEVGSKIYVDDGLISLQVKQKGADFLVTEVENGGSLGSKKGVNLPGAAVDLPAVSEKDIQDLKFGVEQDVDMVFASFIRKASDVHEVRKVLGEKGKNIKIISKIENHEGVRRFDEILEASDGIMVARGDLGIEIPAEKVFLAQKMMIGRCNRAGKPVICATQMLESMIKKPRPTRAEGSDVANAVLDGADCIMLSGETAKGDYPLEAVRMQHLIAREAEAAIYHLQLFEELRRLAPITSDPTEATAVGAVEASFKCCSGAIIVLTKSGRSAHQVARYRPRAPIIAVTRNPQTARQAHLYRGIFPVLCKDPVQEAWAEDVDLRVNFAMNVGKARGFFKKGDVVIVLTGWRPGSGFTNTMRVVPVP", "test": "LDH-coupled Pyruvate Kinase M2 activity assay", "type": "biochemical", "method": "LDH-coupled Pyruvate Kinase M2 (PKM2) activity assay was performed according to published protocols. For the assay, a pH 7.5 buffer solution composed of 50 mM Tris, 100 mM KCl, and 10 mM MgCl2 was prepared, to which 30 ng of human recombinant PKM2 (Sigma-Aldrich Co., St. Louis, MO, USA), 0.6 mM adenosine diphosphate (ADP), 0.5 mM phosphoenolpyruvate (PEP), 180 μM NADH, 10 μM fructose 1,6-bisphosphate (FBP), and 8 units of LDH were added. PEP was added only right before measurement to start the reaction. The change in absorbance at 340 nm due to oxidation of NADH by LDH was measured from 0 to 30 min using an EPOCH microplate spectrophotometer (BioTek Instruments, Winooski, VT, USA). The activity of PK was defined as % in relation to the indicated control."}, "SCC-9 cells": {"system": "SCC-9 cells", "test": "Videomicroscopy by time-lapse", "type": "cell-based, human", "settings": "SCC-9, 2 × IC50 (24.58 μM), up to 48 h", "method": "Cells were maintained in a controlled chamber containing 5% CO2 and 37 °C. Images were captured every minute and integrated using Framelapse software (Neximo Laboratories, Uttar Pradesh, India)."}, "C57BL/6 mice": {"system": "C57BL/6 mice", "test": "Acute toxicity assay in vivo", "settings": "14 days", "method": "All experiments were performed in accordance with the Brazilian guidelines and regulations. Dosing and analysis were performed according to 423 OECD guidelines and reviewed by ref. . An experimental approach was conducted using experimental groups (n = 3) in which each group received a single dose of 7f (100, 200, or 400 mg/kg). […] Control group animals received only 3% DMSO in PBS vehicle. Animals were examined every day, twice a day, for mortality and morbidity for 14 days, and all animals were sacrificed by cervical dislocation. The animals’ body weight and average food consumption were measured every 7 days. […]\nincreased rear arching, and mobility impairment. The necropsy included an examination of the external characteristics of the carcass; external body orifices; the abdominal, thoracic, and cranial cavities; organs/tissues of liver, thymus, right kidney, right testicle, heart, and lung.\nAnimals upon euthanasia had their organs evaluated for signs of toxicity or morphological […]\nare presented: changes in body weight and food intake, signs of morbidity, possible mortality, and macroscopic alterations in collected organs. Each experimental group consisted of three C57BL/6 mice. The animals were monitored for 14 days, after which they were euthanized and necropsied. […]"}, "Hep-G2": {"system": "Hep-G2", "test": "MTT cell viability assay, Hep-G2", "type": "cell-based, human"}, "[2]": {"settings": "100 mg/kg single intraperitoneal dose"}, "[3]": {"settings": "200 mg/kg single intraperitoneal dose"}, "[4]": {"settings": "400 mg/kg single intraperitoneal dose"}},
  "note": "Several values for one entry are separate records, joined by “and”; a condition that tells them apart may be missing. Equal entries are not always repeated.",
  "data": [
    {"smiles": "O=C1C=C(OCc2cn(CCCOc3cc(=O)oc4ccccc34)nn2)C(=O)c2ccccc21", "note": "[Compound 7f, 2-((1-(3-((2-Oxo-2H-chromen-4-yl)oxy)propyl)-1H-1,2,3-triazol-4-yl)methoxy)naphthalene-1,4-dione]", "values": [
      {"measurement": "IC50", "setting": "[1]; Homo sapiens, Fibroblast, MTT, 48 h, normal cells", "result": 22.8, "unit": "µM"},
      {"measurement": "Average SI", "setting": "[1]; average of SI for SCC-9, SCC-4 and SCC-25 versus gingival fibroblast", "result": 2.26},
      {"measurement": "PKM2 % of activity relative to control", "setting": "PKM2; 0.8 µM 7f, experimental replicates 1-5, LDH-coupled assay, vs DMSO", "result": "96.14% and 81.36% and 72.11% and 97.25% and 76.4557%"},
      {"measurement": "PKM2 % of activity relative to control", "setting": "PKM2; 4 µM 7f, experimental replicates 1-5, LDH-coupled assay, vs DMSO", "result": "88.82% and 107.0205% and 91.86% and 99.18%"},
      {"measurement": "remaining activity at 4 µM", "setting": "PKM2; 4 µM 7f, experimental replicates 1-5, LDH-coupled assay, vs DMSO, read-out: PKM2 % of activity relative to control", "result": 96.2, "unit": "%"},
      {"measurement": "PKM2 % of activity relative to control", "setting": "PKM2; 20 µM 7f, experimental replicates 1-5, LDH-coupled assay, vs DMSO", "result": "87.42% and 68.0203% and 47.4026% and 85.71% and 68.03%"},
      {"measurement": "PKM2 % of activity relative to control", "setting": "PKM2; 100 µM 7f, experimental replicates 1-5, LDH-coupled assay, vs DMSO", "result": "42.39% and 13.86% and 46.13% and 34.17% and 45.14%"},
      {"measurement": "IC50", "setting": "PKM2; LDH-coupled assay, 0.8 μM to 100 μM, 30 min", "result": 55.1, "unit": "µM"},
      {"measurement": "proliferation and morphology by video microscopy", "setting": "SCC-9 cells", "result": "pronounced inhibition of proliferation"},
      {"measurement": "Change in body weight", "setting": "C57BL/6 mice; [2]", "result": "Absent"},
      {"measurement": "Change in food consumption", "setting": "C57BL/6 mice; [2]", "result": "Absent"},
      {"measurement": "Gross Necropsy", "setting": "C57BL/6 mice; [2]", "result": "Absent"},
      {"measurement": "Morbidity", "setting": "C57BL/6 mice; [2]", "result": "Absent"},
      {"measurement": "Change in body weight", "setting": "C57BL/6 mice; [3]", "result": "Absent"},
      {"measurement": "Change in food consumption", "setting": "C57BL/6 mice; [3]", "result": "Absent"},
      {"measurement": "Gross Necropsy", "setting": "C57BL/6 mice; [3]", "result": "Absent"},
      {"measurement": "Morbidity", "setting": "C57BL/6 mice; [3]", "result": "Absent"},
      {"measurement": "Change in body weight", "setting": "C57BL/6 mice; [4]", "result": "Absent"},
      {"measurement": "Change in food consumption", "setting": "C57BL/6 mice; [4]", "result": "Absent"},
      {"measurement": "Gross Necropsy", "setting": "C57BL/6 mice; [4]", "result": "Absent"},
      {"measurement": "Morbidity", "setting": "C57BL/6 mice; [4]", "result": "Absent"},
      {"measurement": "IC50", "setting": "Hep-G2; HepG2, MTT, human hepatocellular carcinoma", "result": 16, "unit": "µM"},
      {"measurement": "SI Hep-G2", "setting": "Hep-G2; versus human gingival fibroblast", "result": 1.42}
    ]}
  ]
}
